Laboratory results reported in US7626044B2, “Triptolide derivatives and their uses” (priority 2002, dated 2009).
Values joined by “and” are separate entries in the source; they are usually repeats but may differ in a detail not shown here. Equal entries are not always repeated.

What was measured:
[1] = MTT cytotoxic assay; format: cell-based, mouse; conditions: mouse; restated; read-out: IC50 (lymphocyte cytotoxicity, restated)
Experimental: (§1) Mice were sacrificed by cervical dislocation, and spleens were collected under sterile conditions then teased through a nylon mesh. Erythrocytes were lysed. Cells were washed and resuspended at 5×10^6/ml in RPMI-1640 media supplemented with 10% FBS.
(§2) For one 96 well plate assay, 90 μl of cells, 45 μl of sample and 45 μl of RPMI-1640 media with 10% FBS were added into each well with the final volume 180 μl. The negative control wells (containing 90 μl of RPMI-1640 media with 10% FBS and 90 pt of cells), blank control (180 μl of RPMI-1640 media with 10% FBS) were also performed. Incubate plate for 48 hours at 37° C., 5% CO2 in a humidified incubator. 18 μl of MTT solution (5 mg/ml) was added for 6-7 h.
(§3) 90 μl of MTT lysis solution was added to each well followed by a further incubation at 37° C. for 6-7 h. And the absorbance was measured at 570 nm using a plate reader.

[2] = test system: lymphocyte; assay: MTT cytotoxic assay; format: cell-based, mouse; conditions: Lymphocyte, read-out: IC50 (concentration required to reduce the viability of cells by 50%); mouse spleen cells, 48 hours, MTT
Experimental: as §1, §2, §3

[3] = test system: T lymphocyte; assay: ConA induced T-lymphocyte proliferation ([3H]thymidine); format: cell-based, mouse; conditions: 48 h
Experimental: (§4) Mice were sacrificed by cervical dislocation, and spleens were collected under sterile conditions then teased through a nylon mesh. Erythrocytes were lysed. Cells were washed and resuspended at 5×10^6/ml in RPMI-1640 media containing 10% FBS. For one 96 well plate assay, 100 pt of cells, 50 μl of sample and 50 μl of ConA/LPS were added into each well with the final volume 200 μl. The control wells were set up with 50 μl of RPMI-1640 media instead of ConA/LPS.
(§5) Plates were incubated for 48 h (ConA) or 60 h (LPS), respectively, at 37° C., 5% CO2 in a humidified incubator. In the last 8 h of incubation, 25 μl (1.9×10^10 Bq) of [^3H]thymidine was added. After plates were incubated for 48 h, the plates (ConA) were stored at −20° C., then after another 12 h, the plates (LPS) were stored at −20° C.
(§6) At the end of incubation, pulsed cells were harvested on a glass filter using a cell harvester ([…]96®, TOMTEC) and allowed to dry. Incorporation of radioactive thymidine was determined by using liquid Scintillation and Luminescence Counters (MicroBeta Trilux®, PerkinElmer).

[4] = test system: B lymphocyte; assay: LPS induced B-lymphocyte proliferation ([3H]thymidine); format: cell-based, mouse; conditions: 60 h
Experimental: as §4, §5, §6

[5] = test system: DNFB-induced mouse DTH response; assay: DNFB-induced mouse delayed type hypersensitivity response (DTH); format: in vivo; conditions: Balb/c mice
Experimental: Female Balb/c mice (age of 6-8 wk) were randomly divided into groups and immunized with 20 μl 0.5% DNFB solution in absolute acetone-olive oil (4:1) on each hind foot on day 0 and 1;
7-9 days after the initial immunization, mice were boosted with 10 μl 0.4% DNFB on both sides of the left ear, whereas the right ear was treated with vehicle alone;
Compounds were administered intraperitoneally (i.p.) or orally (p.o.) to the mice 1 h before DNFB booster immunization and 12 h later.
Ear swelling and other indexes were assessed 24-48 h after booster immunization.
Note: Female ICR mice (age of 6-8 wk) were immunized with 0.7% DNFB solution and boosted with 0.6% DNFB solution.

[6] = Acute toxicity (LD50) test in mice, intraperitoneal injection; format: in vivo, mouse; conditions: mouse, in vivo, ip; mice, single intraperitoneal injection, 14 days, Bliss' method
Experimental: Mice were single administered with LLDT-8 by intraperitoneal injection, and observed for clinical signs of toxicity immediately and the following 14 days. Necropsy was performed on all animals that died and on all survivors at the end of the 2-week study. Death was seen from the next day after treatment and reached a peak at the 2-4 day. All gross pathological changes should be recorded for each animal. There was no gender difference in survival.
LLDT-8 is much less toxic than its parent compound, […].

## CC(C)[C@]12O[C@H]1[C@@H]1O[C@]13[C@]1(O[C@H]1C[C@H]1C4=C(CC[C@@]13C)C(=O)OC4)[C@@H]2O [LLDT-2, triptolide]
[1]
  IC50: 2 nM
[2]
  IC50: 0.00074 µg/mL and 2 nM
[3]
  ED50 for inhibiting T lymphocyte proliferation induced by ConA: 2.44 ng/mL
[3]; Mus musculus, T-lymphocyte, read-out: ED50 for inhibiting T lymphocyte proliferation induced by ConA
  EC50: 6.8 nM
[4]
  ED50 for inhibiting B lymphocyte proliferation induced by LPS: 2.38 ng/mL
[4]; Mus musculus, Lymphocyte, read-out: ED50 for inhibiting B lymphocyte proliferation induced by LPS
  EC50: 6.6 nM
[5]; Table 8, i.p., dosage 40 (mg/kg), control 21.9
  Body weight after i.p.: 21.2 g
[5]; Table 8, i.p., dosage 40 (mg/kg), control 22.4
  Body weight before i.p.: 21.5 g
[5]; Table 8, i.p., dosage 40 (mg/kg), control 22.7 ± 2.1
  Ear swelling X ± SD: 17.7 ± 5.7 mg
[5]; Table 8, i.p., dosage 40 (mg/kg), control 26.4
  Right ear: 30.2 mg
[5]; Table 8, i.p., dosage 40 (mg/kg), control 49.1
  Left ear: 47.9 mg
[5]; Table 8, i.p., dosage 40 (mg/kg), control 154.0
  Spleen: 151.4 mg
[5]; Table 9, p.o., dosage 0.2 mg/kg, control 19
  Body weight after (i.p.): 20 g
[5]; Table 9, p.o., dosage 0.2 mg/kg, control 20
  Body weight before (i.p.): 21 g
[5]; Table 9, p.o., dosage 0.2 mg/kg, control 23.4
  Ear swelling: 16.7 mg
[5]; Table 9, p.o., dosage 0.2 mg/kg, control 25.9
  Right ear: 24.5 mg
[5]; Table 9, p.o., dosage 0.2 mg/kg, control 49.3
  Left ear: 41.2 mg
[5]; Table 9, p.o., dosage 0.2 mg/kg, control 125.8
  Spleen: 127.0 mg
[6]
  LD50 at 14 days: 0.5 mg/kg
